# Assay results as given in publication PMC5218480 (PLoS ONE, 2017).
# Test system: MV-4-11 cells
# Assay: Gene expression microarray analysis (Affymetrix PrimeView) and GSEA
# Type: cell-based, human
# Set-up: RFU PODN (11730768_x_at) / Fold change /veh PODN (11730768_x_at) / RFU LINC00158 (11744669_a_at) / Fold change /veh LINC00158 (11744669_a_at) / RFU DUSP10 (11751237_a_at) / Fold change /veh DUSP10 (11751237_a_at) / RFU ID3 (11757404_x_at) / Fold change /veh ID3 (11757404_x_at) / RFU PLEKHG5 (11737974_s_at) / Fold change /veh PLEKHG5 (11737974_s_at) / RFU LRRC4B (11730491_at) / Fold change /veh LRRC4B (11730491_at) / RFU GIMAP4 (11747438_a_at) / Fold change /veh GIMAP4 (11747438_a_at) / RFU KRT8 (11758183_x_at) / Fold change /veh KRT8 (11758183_x_at) / RFU CNN1 (11734310_a_at) / Fold change /veh CNN1 (11734310_a_at) / RFU VPS37D (11726825_at) / Fold change /veh VPS37D (11726825_at) / RFU C10orf10 (11716522_x_at) / Fold change /veh C10orf10 (11716522_x_at) / RFU KIR2DL2 /// KIR2DL4 /// KIR2DL5A /// KIR2DL5B /// KIR2DS1 /// KIR2DS2 /// KIR2DS3 /// KIR2DS4 /// KIR3DL3 /// KIR3DL3 /// KIR3DS1 (11738374_at) / Fold change /veh KIR2DL2 /// KIR2DL4 /// KIR2DL5A /// KIR2DL5B /// KIR2DS1 /// KIR2DS2 /// KIR2DS3 /// KIR2DS4 /// KIR3DL3 /// KIR3DL3 /// KIR3DS1 (11738374_at) / RFU C1QL1 (11718748_at) / Fold change /veh C1QL1 (11718748_at) / RFU TMPRSS4 (11747572_a_at) / Fold change /veh TMPRSS4 (11747572_a_at) / RFU HAMP (11756126_x_at) / Fold change /veh HAMP (11756126_x_at) / RFU RNFT2 (11725882_a_at) / Fold change /veh RNFT2 (11725882_a_at) / RFU NR4A2 (11747474_a_at) / Fold change /veh NR4A2 (11747474_a_at) / RFU ABCC12 (11746883_a_at) / Fold change /veh ABCC12 (11746883_a_at) / RFU TMEM136 (11760407_x_at) / Fold change /veh TMEM136 (11760407_x_at) / RFU CLDN22 /// WWC2 (11732394_at) / Fold change /veh CLDN22 /// WWC2 (11732394_at) / RFU HLA-DPB1 (11760878_x_at) / Fold change /veh HLA-DPB1 (11760878_x_at) / RFU SPINT1 (11716480_a_at) / Fold change /veh SPINT1 (11716480_a_at) / RFU GAP43 (11754022_s_at) / Fold change /veh GAP43 (11754022_s_at) / RFU A4GNT (11735810_at) / Fold change /veh A4GNT (11735810_at) / RFU PRB3 (11715151_x_at) / Fold change /veh PRB3 (11715151_x_at) / RFU TUBB4B (11761932_at) / Fold change /veh TUBB4B (11761932_at) / RFU CAPN14 (11732068_a_at) / Fold change /veh CAPN14 (11732068_a_at) / RFU TMCC2 (11721928_a_at) / Fold change /veh TMCC2 (11721928_a_at) / RFU IRGQ (11745062_a_at) / Fold change /veh IRGQ (11745062_a_at) / RFU FAM174B (11720279_a_at) / Fold change /veh FAM174B (11720279_a_at) / RFU TMPRSS4 (11748680_a_at) / Fold change /veh TMPRSS4 (11748680_a_at) / RFU FAM212B (11763350_a_at) / Fold change /veh FAM212B (11763350_a_at) / RFU PLEKHG5 (11743358_a_at) / Fold change /veh PLEKHG5 (11743358_a_at) / RFU ZSCAN30 (11745921_a_at) / Fold change /veh ZSCAN30 (11745921_a_at) / RFU CMKLR1 (11741424_a_at) / Fold change /veh CMKLR1 (11741424_a_at) / RFU LOC101060620 /// MAPK8IP1 (11723275_at) / Fold change /veh LOC101060620 /// MAPK8IP1 (11723275_at) / RFU SPTSSB (11747773_x_at) / Fold change /veh SPTSSB (11747773_x_at) / RFU PRSS12 (11739890_at) / Fold change /veh PRSS12 (11739890_at) / RFU BIN1 (11741810_x_at) / Fold change /veh BIN1 (11741810_x_at) / RFU WNT11 (11732464_a_at) / Fold change /veh WNT11 (11732464_a_at) / RFU C10orf10 (11716521_a_at) / Fold change /veh C10orf10 (11716521_a_at) / RFU C5orf56 (11738089_at) / Fold change /veh C5orf56 (11738089_at) / RFU CYB561 (11721691_x_at) / Fold change /veh CYB561 (11721691_x_at) / RFU ANKRD19P (11752326_a_at) / Fold change /veh ANKRD19P (11752326_a_at) / RFU OR2T12 /// OR2T33 /// OR2T8 (11738714_s_at) / Fold change /veh OR2T12 /// OR2T33 /// OR2T8 (11738714_s_at) / RFU VCAN (11748164_a_at) / Fold change /veh VCAN (11748164_a_at) / RFU JSRP1 (11732532_at) / Fold change /veh JSRP1 (11732532_at) / RFU KRTAP10-11 (11738290_x_at) / Fold change /veh KRTAP10-11 (11738290_x_at) / RFU MYO3A (11730013_a_at) / Fold change /veh MYO3A (11730013_a_at) / RFU EBF3 (11725865_a_at) / Fold change /veh EBF3 (11725865_a_at) / RFU CAMK2N1 (11719241_x_at) / Fold change /veh CAMK2N1 (11719241_x_at) / RFU C5orf56 (11738088_a_at) / Fold change /veh C5orf56 (11738088_a_at) / RFU OLFML3 (11715873_a_at) / Fold change /veh OLFML3 (11715873_a_at) / RFU LOC100653217 /// NTM (11731650_a_at) / Fold change /veh LOC100653217 /// NTM (11731650_a_at) / RFU MAPK11 (11762145_a_at) / Fold change /veh MAPK11 (11762145_a_at) / RFU FIZ1 (11724087_x_at) / Fold change /veh FIZ1 (11724087_x_at) / RFU OASL (11726364_x_at) / Fold change /veh OASL (11726364_x_at) / RFU SOX15 (11748057_x_at) / Fold change /veh SOX15 (11748057_x_at) / RFU CD79A (11719716_a_at) / Fold change /veh CD79A (11719716_a_at) / RFU HIST1H1D (11736915_at) / Fold change /veh HIST1H1D (11736915_at) / RFU CASKIN2 (11723855_a_at) / Fold change /veh CASKIN2 (11723855_a_at) / RFU LOC730098 (11760151_x_at) / Fold change /veh LOC730098 (11760151_x_at) / RFU OR4N2 (11742367_at) / Fold change /veh OR4N2 (11742367_at) / RFU PRRT2 (11749266_a_at) / Fold change /veh PRRT2 (11749266_a_at) / RFU SNX32 (11753110_a_at) / Fold change /veh SNX32 (11753110_a_at) / RFU CDHR5 (11726645_a_at) / Fold change /veh CDHR5 (11726645_a_at) / RFU RCAN1 (11760418_a_at) / Fold change /veh RCAN1 (11760418_a_at) / RFU FAM167A (11723789_a_at) / Fold change /veh FAM167A (11723789_a_at) / RFU FAM26E (11764081_at) / Fold change /veh FAM26E (11764081_at) / RFU ISYNA1 (11749810_s_at) / Fold change /veh ISYNA1 (11749810_s_at) / RFU ACY1 (11761880_at) / Fold change /veh ACY1 (11761880_at) / RFU 11764098_at / Fold change /veh 11764098_at / RFU SAMD14 (11745864_x_at) / Fold change /veh SAMD14 (11745864_x_at) / RFU NPB (11741838_a_at) / Fold change /veh NPB (11741838_a_at) / RFU TMPRSS6 (11731388_a_at) / Fold change /veh TMPRSS6 (11731388_a_at) / RFU KRTAP10-2 (11738614_at) / Fold change /veh KRTAP10-2 (11738614_at) / RFU ARHGAP8 /// PRR5-ARHGAP8 (11727945_x_at) / Fold change /veh ARHGAP8 /// PRR5-ARHGAP8 (11727945_x_at) / RFU KRTAP5-7 /// NADSYN1 (11734609_at) / Fold change /veh KRTAP5-7 /// NADSYN1 (11734609_at) / RFU RASL12 (11751679_a_at) / Fold change /veh RASL12 (11751679_a_at) / RFU CDKN2B (11736163_a_at) / Fold change /veh CDKN2B (11736163_a_at) / RFU PRF1 (11729649_at) / Fold change /veh PRF1 (11729649_at) / RFU, ZNF638 /// ZNF638-IT1 / Fold change vs veh, ZNF638 /// ZNF638-IT1 / RFU, PANK3 / Fold change vs veh, PANK3 / RFU, SH3YL1 / Fold change vs veh, SH3YL1 / RFU, ZEB2 / Fold change vs veh, ZEB2 / RFU, NRIP1 / Fold change vs veh, NRIP1 / RFU, PTTG1IP / Fold change vs veh, PTTG1IP / RFU, CAPN2 / Fold change vs veh, CAPN2 / RFU, MED14 / Fold change vs veh, MED14 / RFU, SNORA58 / Fold change vs veh, SNORA58 / RFU, C1orf63 / Fold change vs veh, C1orf63 / RFU, LRRFIP1 / Fold change vs veh, LRRFIP1 / RFU, NDUFAF7 / Fold change vs veh, NDUFAF7 / RFU, SLC12A2 / Fold change vs veh, SLC12A2 / RFU, IBTK / Fold change vs veh, IBTK / RFU, ESF1 / Fold change vs veh, ESF1 / Fold change vs veh, TMEM50B / RFU, TAOK1 / Fold change vs veh, TAOK1 / RFU, ACBD3 / Fold change vs veh, ACBD3 / RFU, TMA16 / Fold change vs veh, TMA16 / RFU, RWDD3 / Fold change vs veh, RWDD3 / RFU, BCAT1 / Fold change vs veh, BCAT1 / RFU, EDEM3 / Fold change vs veh, EDEM3 / RFU, TMEM33 / Fold change vs veh, TMEM33 / RFU, WDR75 / Fold change vs veh, WDR75 / RFU, AHCTF1 / Fold change vs veh, AHCTF1 / RFU, TFRC / Fold change vs veh, TFRC / RFU, ZDHHC17 / Fold change vs veh, ZDHHC17 / RFU, NOM1 / Fold change vs veh, NOM1 / RFU, ARL8B / Fold change vs veh, ARL8B / RFU, ZBTB11 / Fold change vs veh, ZBTB11 / RFU, TAMM41 / Fold change vs veh, TAMM41 / RFU, KIAA1704 /// LOC100996395 / Fold change vs veh, KIAA1704 /// LOC100996395 / RFU, ING1 / Fold change vs veh, ING1 / RFU, TRMT61B / Fold change vs veh, TRMT61B / RFU, FUBP3 / Fold change vs veh, FUBP3 / RFU, TP53 / Fold change vs veh, TP53 / RFU, TNKS2 / Fold change vs veh, TNKS2 / RFU, ZFP14 / Fold change vs veh, ZFP14 / RFU, ACTR2 / Fold change vs veh, ACTR2 / RFU, PPP3R1 / Fold change vs veh, PPP3R1 / RFU, PIK3R1 / Fold change vs veh, PIK3R1 / RFU, HNRNPA1 / Fold change vs veh, HNRNPA1 / RFU, RNF170 / Fold change vs veh, RNF170 / RFU, ZNF28 / Fold change vs veh, ZNF28 / RFU, RNGTT / Fold change vs veh, RNGTT / RFU, OGT / Fold change vs veh, OGT / RFU, BRD1 / Fold change vs veh, BRD1 / RFU, MARS / Fold change vs veh, MARS / RFU, ZNF655 / Fold change vs veh, ZNF655 / RFU, FAHD1 / Fold change vs veh, FAHD1 / RFU, BDP1 / Fold change vs veh, BDP1 / RFU, LRRCC1 / Fold change vs veh, LRRCC1 / RFU, ARID1A / Fold change vs veh, ARID1A / RFU, ZNF146 / Fold change vs veh, ZNF146 / RFU, ZNF330 / Fold change vs veh, ZNF330 / RFU, GPN3 / Fold change vs veh, GPN3 / RFU, C9orf123 / Fold change vs veh, C9orf123 / RFU, N4BP2L2 / Fold change vs veh, N4BP2L2 / RFU, ARFIP1 / Fold change vs veh, ARFIP1 / RFU, FAM179B / Fold change vs veh, FAM179B / RFU, BCL10 / Fold change vs veh, BCL10 / RFU, UHRF1BP1L / Fold change vs veh, UHRF1BP1L / RFU, BET1 / Fold change vs veh, BET1 / RFU, CNOT2 / Fold change vs veh, CNOT2 / RFU, ZNF268 / Fold change vs veh, ZNF268 / Fold change vs veh, ZNF507 / RFU, DGCR2 / Fold change vs veh, DGCR2 / RFU, WDSUB1 / Fold change vs veh, WDSUB1 / Fold change vs veh, HSP90B1 /// MIR3652 / RFU, ADSS / Fold change vs veh, ADSS / RFU, GK / Fold change vs veh, GK / RFU, ZNF148 / Fold change vs veh, ZNF148 / RFU, TAF9 / Fold change vs veh, TAF9 / RFU, SLC1A5 / Fold change vs veh, SLC1A5 / RFU, SLMO2 / Fold change vs veh, SLMO2 / RFU, ABCC4 / Fold change vs veh, ABCC4 / RFU, LOC101060439 /// RAP1B / Fold change vs veh, LOC101060439 /// RAP1B / RFU, RFX7 / Fold change vs veh, RFX7 / RFU, GTPBP10 / Fold change vs veh, GTPBP10 / RFU, CNEP1R1 / Fold change vs veh, CNEP1R1 / RFU, BIVM-ERCC5 /// ERCC5 / Fold change vs veh, BIVM-ERCC5 /// ERCC5 / RFU, ILF3 / Fold change vs veh, ILF3 / RFU 11762660_at / Fold change /veh 11762660_at / RFU VCAN (11757783_s_at) / Fold change /veh VCAN (11757783_s_at) / RFU DDX43 (11728927_at) / Fold change /veh DDX43 (11728927_at) / RFU KRT8 (11758188_x_at) / Fold change /veh KRT8 (11758188_x_at) / RFU NKD1 (11759106_at) / Fold change /veh NKD1 (11759106_at) / RFU SRD5A1 (11742802_a_at) / Fold change /veh SRD5A1 (11742802_a_at) / RFU TPSAB1 /// TPSB2 (11721975_s_at) / Fold change /veh TPSAB1 /// TPSB2 (11721975_s_at) / RFU GSTM3 (11746129_a_at) / Fold change /veh GSTM3 (11746129_a_at) / RFU IL23R (11737362_x_at) / Fold change /veh IL23R (11737362_x_at) / RFU TMEM51 (11727254_a_at) / Fold change /veh TMEM51 (11727254_a_at) / RFU PIWIL2 (11732686_x_at) / Fold change /veh PIWIL2 (11732686_x_at) / RFU ORM1 (11744905_x_at) / Fold change /veh ORM1 (11744905_x_at) / RFU CCDC152 (11743942_at) / Fold change /veh CCDC152 (11743942_at) / RFU ECM1 (11717891_a_at) / Fold change /veh ECM1 (11717891_a_at) / RFU IL23R (11748794_a_at) / Fold change /veh IL23R (11748794_a_at) / RFU TNFAIP8L3 (11732012_x_at) / Fold change /veh TNFAIP8L3 (11732012_x_at) / RFU MBOAT4 (11741988_at) / Fold change /veh MBOAT4 (11741988_at) / RFU 11764193_at / Fold change /veh 11764193_at / RFU TMEM53 (11763286_at) / Fold change /veh TMEM53 (11763286_at) / RFU MAGEB2 (11727129_at) / Fold change /veh MAGEB2 (11727129_at) / RFU TMEM200A (11744735_a_at) / Fold change /veh TMEM200A (11744735_a_at) / RFU CCDC152 (11751479_a_at) / Fold change /veh CCDC152 (11751479_a_at) / RFU FAM211A (11726209_a_at) / Fold change /veh FAM211A (11726209_a_at) / RFU RGS16 (11746705_a_at) / Fold change /veh RGS16 (11746705_a_at) / RFU VCAN (11755009_s_at) / Fold change /veh VCAN (11755009_s_at) / RFU RHOB (11743442_s_at) / Fold change /veh RHOB (11743442_s_at) / RFU RGS16 (11720943_a_at) / Fold change /veh RGS16 (11720943_a_at) / RFU RGS16 (11720944_at) / Fold change /veh RGS16 (11720944_at) / RFU, VPS4B / Fold change vs veh, VPS4B / RFU, CREB1 / Fold change vs veh, CREB1 / RFU, DNAJC13 / Fold change vs veh, DNAJC13 / RFU, GNAQ / Fold change vs veh, GNAQ / RFU, CDK5R1 / Fold change vs veh, CDK5R1 / RFU, ZRANB3 / Fold change vs veh, ZRANB3 / RFU, CUL4A / Fold change vs veh, CUL4A / RFU, CCNY / Fold change vs veh, CCNY / RFU, UFL1 / Fold change vs veh, UFL1 / RFU, COG3 / Fold change vs veh, COG3 / RFU, DIAPH2 / Fold change vs veh, DIAPH2 / RFU, SKA2 / Fold change vs veh, SKA2 / RFU, AFF3 / Fold change vs veh, AFF3 / RFU, LMF1 / Fold change vs veh, LMF1 / RFU, IPO11 / Fold change vs veh, IPO11 / RFU, DFFB / Fold change vs veh, DFFB / RFU, FOXP1 / Fold change vs veh, FOXP1 / RFU, CARD8 / Fold change vs veh, CARD8 / RFU, STRN3 / Fold change vs veh, STRN3 / RFU, ADK / Fold change vs veh, ADK / RFU, RASSF2 / Fold change vs veh, RASSF2 / RFU, WIPF1 / Fold change vs veh, WIPF1 / RFU, LARP1B / Fold change vs veh, LARP1B / RFU, RASA1 / Fold change vs veh, RASA1 / RFU, RB1 / Fold change vs veh, RB1 / RFU, PPFIA1 / Fold change vs veh, PPFIA1 / RFU, MAT2A / Fold change vs veh, MAT2A / RFU, CCT5 / Fold change vs veh, CCT5 / RFU, WDR92 / Fold change vs veh, WDR92 / RFU, CUX1 / Fold change vs veh, CUX1 / RFU, TTC7A / Fold change vs veh, TTC7A / RFU, TMEM135 / Fold change vs veh, TMEM135 / RFU, DEPTOR / Fold change vs veh, DEPTOR / RFU, CPM / Fold change vs veh, CPM / RFU, DNAJB6 / Fold change vs veh, DNAJB6 / RFU, CACNA2D3 / Fold change vs veh, CACNA2D3 / RFU, DTX4 / Fold change vs veh, DTX4 / RFU, TFCP2 / Fold change vs veh, TFCP2 / RFU, GMCL1 /// GMCL1P1 / Fold change vs veh, GMCL1 /// GMCL1P1 / RFU, AEBP2 / Fold change vs veh, AEBP2 / RFU, SNHG1 /// SNORD22 /// SNORD25 /// SNORD26 /// SNORD27 /// SNORD28 /// SNORD29 /// SNORD31 / Fold change vs veh, SNHG1 /// SNORD22 /// SNORD25 /// SNORD26 /// SNORD27 /// SNORD28 /// SNORD29 /// SNORD31 / Fold change (Aza/veh), C12orf56 (ProbeSet 11735607_a_at) / Fold change (ACY-1035/veh), C12orf56 (ProbeSet 11735607_a_at) / Fold change (Aza/veh), FGFR1OP (ProbeSet 11751329_s_at) / Fold change (ACY-1035/veh), FGFR1OP (ProbeSet 11751329_s_at) / Fold change (Aza/veh), VPS36 (ProbeSet 11739960_a_at) / Fold change (ACY-1035/veh), VPS36 (ProbeSet 11739960_a_at) / RFU SYPL1 (11715823_x_at) / Fold change /veh SYPL1 (11715823_x_at) / RFU IGFBP7 (11715501_s_at) / Fold change /veh IGFBP7 (11715501_s_at) / RFU REEP3 (11722064_at) / Fold change /veh REEP3 (11722064_at) / RFU IGLL1 (11728026_x_at) / Fold change /veh IGLL1 (11728026_x_at): dose or concentration left out as unconfirmed
# Conditions: ProbeSet 11720269_a_at; LIST B
compound,measurement,value
Nc1ccc(-c2cccs2)cc1NC(=O)c1ccc2c(c1)cc(C1CC1)n2CCN1CCOCC1 [ACY-1035],"RFU, IBTK",758.00 RFU
